From article PMC5218480 (PLoS ONE, 2017) come the findings set out here.

The assay relates to MV-4-11 cells. As to the kind of experiment: Gene expression microarray analysis (Affymetrix PrimeView) and GSEA. More on the design: RFU PODN (11730768_x_at) / Fold change /veh PODN (11730768_x_at) / RFU LINC00158 (11744669_a_at) / Fold change /veh LINC00158 (11744669_a_at) / RFU DUSP10 (11751237_a_at) / Fold change /veh DUSP10 (11751237_a_at) / RFU ID3 (11757404_x_at) / Fold change /veh ID3 (11757404_x_at) / RFU PLEKHG5 (11737974_s_at) / Fold change /veh PLEKHG5 (11737974_s_at) / RFU LRRC4B (11730491_at) / Fold change /veh LRRC4B (11730491_at) / RFU GIMAP4 (11747438_a_at) / Fold change /veh GIMAP4 (11747438_a_at) / RFU KRT8 (11758183_x_at) / Fold change /veh KRT8 (11758183_x_at) / RFU CNN1 (11734310_a_at) / Fold change /veh CNN1 (11734310_a_at) / RFU VPS37D (11726825_at) / Fold change /veh VPS37D (11726825_at) / RFU C10orf10 (11716522_x_at) / Fold change /veh C10orf10 (11716522_x_at) / RFU KIR2DL2 /// KIR2DL4 /// KIR2DL5A /// KIR2DL5B /// KIR2DS1 /// KIR2DS2 /// KIR2DS3 /// KIR2DS4 /// KIR3DL3 /// KIR3DL3 /// KIR3DS1 (11738374_at) / Fold change /veh KIR2DL2 /// KIR2DL4 /// KIR2DL5A /// KIR2DL5B /// KIR2DS1 /// KIR2DS2 /// KIR2DS3 /// KIR2DS4 /// KIR3DL3 /// KIR3DL3 /// KIR3DS1 (11738374_at) / RFU C1QL1 (11718748_at) / Fold change /veh C1QL1 (11718748_at) / RFU TMPRSS4 (11747572_a_at) / Fold change /veh TMPRSS4 (11747572_a_at) / RFU HAMP (11756126_x_at) / Fold change /veh HAMP (11756126_x_at) / RFU RNFT2 (11725882_a_at) / Fold change /veh RNFT2 (11725882_a_at) / RFU NR4A2 (11747474_a_at) / Fold change /veh NR4A2 (11747474_a_at) / RFU ABCC12 (11746883_a_at) / Fold change /veh ABCC12 (11746883_a_at) / RFU TMEM136 (11760407_x_at) / Fold change /veh TMEM136 (11760407_x_at) / RFU CLDN22 /// WWC2 (11732394_at) / Fold change /veh CLDN22 /// WWC2 (11732394_at) / RFU HLA-DPB1 (11760878_x_at) / Fold change /veh HLA-DPB1 (11760878_x_at) / RFU SPINT1 (11716480_a_at) / Fold change /veh SPINT1 (11716480_a_at) / RFU GAP43 (11754022_s_at) / Fold change /veh GAP43 (11754022_s_at) / RFU A4GNT (11735810_at) / Fold change /veh A4GNT (11735810_at) / RFU PRB3 (11715151_x_at) / Fold change /veh PRB3 (11715151_x_at) / RFU TUBB4B (11761932_at) / Fold change /veh TUBB4B (11761932_at) / RFU CAPN14 (11732068_a_at) / Fold change /veh CAPN14 (11732068_a_at) / RFU TMCC2 (11721928_a_at) / Fold change /veh TMCC2 (11721928_a_at) / RFU IRGQ (11745062_a_at) / Fold change /veh IRGQ (11745062_a_at) / RFU FAM174B (11720279_a_at) / Fold change /veh FAM174B (11720279_a_at) / RFU TMPRSS4 (11748680_a_at) / Fold change /veh TMPRSS4 (11748680_a_at) / RFU FAM212B (11763350_a_at) / Fold change /veh FAM212B (11763350_a_at) / RFU PLEKHG5 (11743358_a_at) / Fold change /veh PLEKHG5 (11743358_a_at) / RFU ZSCAN30 (11745921_a_at) / Fold change /veh ZSCAN30 (11745921_a_at) / RFU CMKLR1 (11741424_a_at) / Fold change /veh CMKLR1 (11741424_a_at) / RFU LOC101060620 /// MAPK8IP1 (11723275_at) / Fold change /veh LOC101060620 /// MAPK8IP1 (11723275_at) / RFU SPTSSB (11747773_x_at) / Fold change /veh SPTSSB (11747773_x_at) / RFU PRSS12 (11739890_at) / Fold change /veh PRSS12 (11739890_at) / RFU BIN1 (11741810_x_at) / Fold change /veh BIN1 (11741810_x_at) / RFU WNT11 (11732464_a_at) / Fold change /veh WNT11 (11732464_a_at) / RFU C10orf10 (11716521_a_at) / Fold change /veh C10orf10 (11716521_a_at) / RFU C5orf56 (11738089_at) / Fold change /veh C5orf56 (11738089_at) / RFU CYB561 (11721691_x_at) / Fold change /veh CYB561 (11721691_x_at) / RFU ANKRD19P (11752326_a_at) / Fold change /veh ANKRD19P (11752326_a_at) / RFU OR2T12 /// OR2T33 /// OR2T8 (11738714_s_at) / Fold change /veh OR2T12 /// OR2T33 /// OR2T8 (11738714_s_at) / RFU VCAN (11748164_a_at) / Fold change /veh VCAN (11748164_a_at) / RFU JSRP1 (11732532_at) / Fold change /veh JSRP1 (11732532_at) / RFU KRTAP10-11 (11738290_x_at) / Fold change /veh KRTAP10-11 (11738290_x_at) / RFU MYO3A (11730013_a_at) / Fold change /veh MYO3A (11730013_a_at) / RFU EBF3 (11725865_a_at) / Fold change /veh EBF3 (11725865_a_at) / RFU CAMK2N1 (11719241_x_at) / Fold change /veh CAMK2N1 (11719241_x_at) / RFU C5orf56 (11738088_a_at) / Fold change /veh C5orf56 (11738088_a_at) / RFU OLFML3 (11715873_a_at) / Fold change /veh OLFML3 (11715873_a_at) / RFU LOC100653217 /// NTM (11731650_a_at) / Fold change /veh LOC100653217 /// NTM (11731650_a_at) / RFU MAPK11 (11762145_a_at) / Fold change /veh MAPK11 (11762145_a_at) / RFU FIZ1 (11724087_x_at) / Fold change /veh FIZ1 (11724087_x_at) / RFU OASL (11726364_x_at) / Fold change /veh OASL (11726364_x_at) / RFU SOX15 (11748057_x_at) / Fold change /veh SOX15 (11748057_x_at) / RFU CD79A (11719716_a_at) / Fold change /veh CD79A (11719716_a_at) / RFU HIST1H1D (11736915_at) / Fold change /veh HIST1H1D (11736915_at) / RFU CASKIN2 (11723855_a_at) / Fold change /veh CASKIN2 (11723855_a_at) / RFU LOC730098 (11760151_x_at) / Fold change /veh LOC730098 (11760151_x_at) / RFU OR4N2 (11742367_at) / Fold change /veh OR4N2 (11742367_at) / RFU PRRT2 (11749266_a_at) / Fold change /veh PRRT2 (11749266_a_at) / RFU SNX32 (11753110_a_at) / Fold change /veh SNX32 (11753110_a_at) / RFU CDHR5 (11726645_a_at) / Fold change /veh CDHR5 (11726645_a_at) / RFU RCAN1 (11760418_a_at) / Fold change /veh RCAN1 (11760418_a_at) / RFU FAM167A (11723789_a_at) / Fold change /veh FAM167A (11723789_a_at) / RFU FAM26E (11764081_at) / Fold change /veh FAM26E (11764081_at) / RFU ISYNA1 (11749810_s_at) / Fold change /veh ISYNA1 (11749810_s_at) / RFU ACY1 (11761880_at) / Fold change /veh ACY1 (11761880_at) / RFU 11764098_at / Fold change /veh 11764098_at / RFU SAMD14 (11745864_x_at) / Fold change /veh SAMD14 (11745864_x_at) / RFU NPB (11741838_a_at) / Fold change /veh NPB (11741838_a_at) / RFU TMPRSS6 (11731388_a_at) / Fold change /veh TMPRSS6 (11731388_a_at) / RFU KRTAP10-2 (11738614_at) / Fold change /veh KRTAP10-2 (11738614_at) / RFU ARHGAP8 /// PRR5-ARHGAP8 (11727945_x_at) / Fold change /veh ARHGAP8 /// PRR5-ARHGAP8 (11727945_x_at) / RFU KRTAP5-7 /// NADSYN1 (11734609_at) / Fold change /veh KRTAP5-7 /// NADSYN1 (11734609_at) / RFU RASL12 (11751679_a_at) / Fold change /veh RASL12 (11751679_a_at) / RFU CDKN2B (11736163_a_at) / Fold change /veh CDKN2B (11736163_a_at) / RFU PRF1 (11729649_at) / Fold change /veh PRF1 (11729649_at) / RFU, ZNF638 /// ZNF638-IT1 / Fold change vs veh, ZNF638 /// ZNF638-IT1 / RFU, PANK3 / Fold change vs veh, PANK3 / RFU, SH3YL1 / Fold change vs veh, SH3YL1 / RFU, ZEB2 / Fold change vs veh, ZEB2 / RFU, NRIP1 / Fold change vs veh, NRIP1 / RFU, PTTG1IP / Fold change vs veh, PTTG1IP / RFU, CAPN2 / Fold change vs veh, CAPN2 / RFU, MED14 / Fold change vs veh, MED14 / RFU, SNORA58 / Fold change vs veh, SNORA58 / RFU, C1orf63 / Fold change vs veh, C1orf63 / RFU, LRRFIP1 / Fold change vs veh, LRRFIP1 / RFU, NDUFAF7 / Fold change vs veh, NDUFAF7 / RFU, SLC12A2 / Fold change vs veh, SLC12A2 / RFU, IBTK / Fold change vs veh, IBTK / RFU, ESF1 / Fold change vs veh, ESF1 / Fold change vs veh, TMEM50B / RFU, TAOK1 / Fold change vs veh, TAOK1 / RFU, ACBD3 / Fold change vs veh, ACBD3 / RFU, TMA16 / Fold change vs veh, TMA16 / RFU, RWDD3 / Fold change vs veh, RWDD3 / RFU, BCAT1 / Fold change vs veh, BCAT1 / RFU, EDEM3 / Fold change vs veh, EDEM3 / RFU, TMEM33 / Fold change vs veh, TMEM33 / RFU, WDR75 / Fold change vs veh, WDR75 / RFU, AHCTF1 / Fold change vs veh, AHCTF1 / RFU, TFRC / Fold change vs veh, TFRC / RFU, ZDHHC17 / Fold change vs veh, ZDHHC17 / RFU, NOM1 / Fold change vs veh, NOM1 / RFU, ARL8B / Fold change vs veh, ARL8B / RFU, ZBTB11 / Fold change vs veh, ZBTB11 / RFU, TAMM41 / Fold change vs veh, TAMM41 / RFU, KIAA1704 /// LOC100996395 / Fold change vs veh, KIAA1704 /// LOC100996395 / RFU, ING1 / Fold change vs veh, ING1 / RFU, TRMT61B / Fold change vs veh, TRMT61B / RFU, FUBP3 / Fold change vs veh, FUBP3 / RFU, TP53 / Fold change vs veh, TP53 / RFU, TNKS2 / Fold change vs veh, TNKS2 / RFU, ZFP14 / Fold change vs veh, ZFP14 / RFU, ACTR2 / Fold change vs veh, ACTR2 / RFU, PPP3R1 / Fold change vs veh, PPP3R1 / RFU, PIK3R1 / Fold change vs veh, PIK3R1 / RFU, HNRNPA1 / Fold change vs veh, HNRNPA1 / RFU, RNF170 / Fold change vs veh, RNF170 / RFU, ZNF28 / Fold change vs veh, ZNF28 / RFU, RNGTT / Fold change vs veh, RNGTT / RFU, OGT / Fold change vs veh, OGT / RFU, BRD1 / Fold change vs veh, BRD1 / RFU, MARS / Fold change vs veh, MARS / RFU, ZNF655 / Fold change vs veh, ZNF655 / RFU, FAHD1 / Fold change vs veh, FAHD1 / RFU, BDP1 / Fold change vs veh, BDP1 / RFU, LRRCC1 / Fold change vs veh, LRRCC1 / RFU, ARID1A / Fold change vs veh, ARID1A / RFU, ZNF146 / Fold change vs veh, ZNF146 / RFU, ZNF330 / Fold change vs veh, ZNF330 / RFU, GPN3 / Fold change vs veh, GPN3 / RFU, C9orf123 / Fold change vs veh, C9orf123 / RFU, N4BP2L2 / Fold change vs veh, N4BP2L2 / RFU, ARFIP1 / Fold change vs veh, ARFIP1 / RFU, FAM179B / Fold change vs veh, FAM179B / RFU, BCL10 / Fold change vs veh, BCL10 / RFU, UHRF1BP1L / Fold change vs veh, UHRF1BP1L / RFU, BET1 / Fold change vs veh, BET1 / RFU, CNOT2 / Fold change vs veh, CNOT2 / RFU, ZNF268 / Fold change vs veh, ZNF268 / Fold change vs veh, ZNF507 / RFU, DGCR2 / Fold change vs veh, DGCR2 / RFU, WDSUB1 / Fold change vs veh, WDSUB1 / Fold change vs veh, HSP90B1 /// MIR3652 / RFU, ADSS / Fold change vs veh, ADSS / RFU, GK / Fold change vs veh, GK / RFU, ZNF148 / Fold change vs veh, ZNF148 / RFU, TAF9 / Fold change vs veh, TAF9 / RFU, SLC1A5 / Fold change vs veh, SLC1A5 / RFU, SLMO2 / Fold change vs veh, SLMO2 / RFU, ABCC4 / Fold change vs veh, ABCC4 / RFU, LOC101060439 /// RAP1B / Fold change vs veh, LOC101060439 /// RAP1B / RFU, RFX7 / Fold change vs veh, RFX7 / RFU, GTPBP10 / Fold change vs veh, GTPBP10 / RFU, CNEP1R1 / Fold change vs veh, CNEP1R1 / RFU, BIVM-ERCC5 /// ERCC5 / Fold change vs veh, BIVM-ERCC5 /// ERCC5 / RFU, ILF3 / Fold change vs veh, ILF3 / RFU 11762660_at / Fold change /veh 11762660_at / RFU VCAN (11757783_s_at) / Fold change /veh VCAN (11757783_s_at) / RFU DDX43 (11728927_at) / Fold change /veh DDX43 (11728927_at) / RFU KRT8 (11758188_x_at) / Fold change /veh KRT8 (11758188_x_at) / RFU NKD1 (11759106_at) / Fold change /veh NKD1 (11759106_at) / RFU SRD5A1 (11742802_a_at) / Fold change /veh SRD5A1 (11742802_a_at) / RFU TPSAB1 /// TPSB2 (11721975_s_at) / Fold change /veh TPSAB1 /// TPSB2 (11721975_s_at) / RFU GSTM3 (11746129_a_at) / Fold change /veh GSTM3 (11746129_a_at) / RFU IL23R (11737362_x_at) / Fold change /veh IL23R (11737362_x_at) / RFU TMEM51 (11727254_a_at) / Fold change /veh TMEM51 (11727254_a_at) / RFU PIWIL2 (11732686_x_at) / Fold change /veh PIWIL2 (11732686_x_at) / RFU ORM1 (11744905_x_at) / Fold change /veh ORM1 (11744905_x_at) / RFU CCDC152 (11743942_at) / Fold change /veh CCDC152 (11743942_at) / RFU ECM1 (11717891_a_at) / Fold change /veh ECM1 (11717891_a_at) / RFU IL23R (11748794_a_at) / Fold change /veh IL23R (11748794_a_at) / RFU TNFAIP8L3 (11732012_x_at) / Fold change /veh TNFAIP8L3 (11732012_x_at) / RFU MBOAT4 (11741988_at) / Fold change /veh MBOAT4 (11741988_at) / RFU 11764193_at / Fold change /veh 11764193_at / RFU TMEM53 (11763286_at) / Fold change /veh TMEM53 (11763286_at) / RFU MAGEB2 (11727129_at) / Fold change /veh MAGEB2 (11727129_at) / RFU TMEM200A (11744735_a_at) / Fold change /veh TMEM200A (11744735_a_at) / RFU CCDC152 (11751479_a_at) / Fold change /veh CCDC152 (11751479_a_at) / RFU FAM211A (11726209_a_at) / Fold change /veh FAM211A (11726209_a_at) / RFU RGS16 (11746705_a_at) / Fold change /veh RGS16 (11746705_a_at) / RFU VCAN (11755009_s_at) / Fold change /veh VCAN (11755009_s_at) / RFU RHOB (11743442_s_at) / Fold change /veh RHOB (11743442_s_at) / RFU RGS16 (11720943_a_at) / Fold change /veh RGS16 (11720943_a_at) / RFU RGS16 (11720944_at) / Fold change /veh RGS16 (11720944_at) / RFU, VPS4B / Fold change vs veh, VPS4B / RFU, CREB1 / Fold change vs veh, CREB1 / RFU, DNAJC13 / Fold change vs veh, DNAJC13 / RFU, GNAQ / Fold change vs veh, GNAQ / RFU, CDK5R1 / Fold change vs veh, CDK5R1 / RFU, ZRANB3 / Fold change vs veh, ZRANB3 / RFU, CUL4A / Fold change vs veh, CUL4A / RFU, CCNY / Fold change vs veh, CCNY / RFU, UFL1 / Fold change vs veh, UFL1 / RFU, COG3 / Fold change vs veh, COG3 / RFU, DIAPH2 / Fold change vs veh, DIAPH2 / RFU, SKA2 / Fold change vs veh, SKA2 / RFU, AFF3 / Fold change vs veh, AFF3 / RFU, LMF1 / Fold change vs veh, LMF1 / RFU, IPO11 / Fold change vs veh, IPO11 / RFU, DFFB / Fold change vs veh, DFFB / RFU, FOXP1 / Fold change vs veh, FOXP1 / RFU, CARD8 / Fold change vs veh, CARD8 / RFU, STRN3 / Fold change vs veh, STRN3 / RFU, ADK / Fold change vs veh, ADK / RFU, RASSF2 / Fold change vs veh, RASSF2 / RFU, WIPF1 / Fold change vs veh, WIPF1 / RFU, LARP1B / Fold change vs veh, LARP1B / RFU, RASA1 / Fold change vs veh, RASA1 / RFU, RB1 / Fold change vs veh, RB1 / RFU, PPFIA1 / Fold change vs veh, PPFIA1 / RFU, MAT2A / Fold change vs veh, MAT2A / RFU, CCT5 / Fold change vs veh, CCT5 / RFU, WDR92 / Fold change vs veh, WDR92 / RFU, CUX1 / Fold change vs veh, CUX1 / RFU, TTC7A / Fold change vs veh, TTC7A / RFU, TMEM135 / Fold change vs veh, TMEM135 / RFU, DEPTOR / Fold change vs veh, DEPTOR / RFU, CPM / Fold change vs veh, CPM / RFU, DNAJB6 / Fold change vs veh, DNAJB6 / RFU, CACNA2D3 / Fold change vs veh, CACNA2D3 / RFU, DTX4 / Fold change vs veh, DTX4 / RFU, TFCP2 / Fold change vs veh, TFCP2 / RFU, GMCL1 /// GMCL1P1 / Fold change vs veh, GMCL1 /// GMCL1P1 / RFU, AEBP2 / Fold change vs veh, AEBP2 / RFU, SNHG1 /// SNORD22 /// SNORD25 /// SNORD26 /// SNORD27 /// SNORD28 /// SNORD29 /// SNORD31 / Fold change vs veh, SNHG1 /// SNORD22 /// SNORD25 /// SNORD26 /// SNORD27 /// SNORD28 /// SNORD29 /// SNORD31 / Fold change (Aza/veh), C12orf56 (ProbeSet 11735607_a_at) / Fold change (ACY-1035/veh), C12orf56 (ProbeSet 11735607_a_at) / Fold change (Aza/veh), FGFR1OP (ProbeSet 11751329_s_at) / Fold change (ACY-1035/veh), FGFR1OP (ProbeSet 11751329_s_at) / Fold change (Aza/veh), VPS36 (ProbeSet 11739960_a_at) / Fold change (ACY-1035/veh), VPS36 (ProbeSet 11739960_a_at) / RFU SYPL1 (11715823_x_at) / Fold change /veh SYPL1 (11715823_x_at) / RFU IGFBP7 (11715501_s_at) / Fold change /veh IGFBP7 (11715501_s_at) / RFU REEP3 (11722064_at) / Fold change /veh REEP3 (11722064_at) / RFU IGLL1 (11728026_x_at) / Fold change /veh IGLL1 (11728026_x_at): dose or concentration left out as unconfirmed. The assay is classed as cell-based, human. The note with it: ProbeSet 11716931_at; LIST B.

Turning to `Nc1ncn([C@@H]2O[C@H](CO)[C@@H](O)[C@H]2O)c(=O)n1` [azacitidine], the “Fold change vs veh, DGCR2” value is 0.93.
